No end group written: not given here.

This note sets out measurements from patent US20050019869A1, “Chimeric neuropeptide Y receptors” (priority 2000, published 2005).

In one assay the target is T1, NPY5 receptor (Homo sapiens, UniProt Q15761).
T1 construct: made in house; host or cells: Sf9 insect cells infected with recombinant baculovirus; purified membranes
T1 sequence (Q15761 with tags, fused parts or gaps): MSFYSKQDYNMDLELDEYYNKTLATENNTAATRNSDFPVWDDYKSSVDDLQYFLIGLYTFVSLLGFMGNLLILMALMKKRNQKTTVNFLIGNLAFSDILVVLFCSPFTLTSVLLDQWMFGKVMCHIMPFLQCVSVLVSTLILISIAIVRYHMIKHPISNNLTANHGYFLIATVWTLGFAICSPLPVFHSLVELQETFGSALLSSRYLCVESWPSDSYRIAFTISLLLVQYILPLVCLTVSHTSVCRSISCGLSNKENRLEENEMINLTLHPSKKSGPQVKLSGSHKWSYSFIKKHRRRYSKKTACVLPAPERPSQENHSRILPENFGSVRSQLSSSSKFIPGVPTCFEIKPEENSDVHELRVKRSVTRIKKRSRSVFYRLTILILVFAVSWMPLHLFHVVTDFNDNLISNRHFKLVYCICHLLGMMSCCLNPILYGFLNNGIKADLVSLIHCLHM
The assay is described as follows: [125I]PYY competition binding, Sf9 membranes expressing NPY5. Particulars: displacement of 0.050 nM [125I]PYY (porcine).

Assay [1] addresses T2, NPY5ΔY1IC3 chimeric receptor (Homo sapiens, UniProt Q15761, DEL238-360/INS235IRLKRRNNMMDKMRDNKY/K361S).
T2 construct: made in house; host or cells: Sf9 insect cells infected with recombinant baculovirus (pBacPAK9 vector); purified membranes
T2 sequence (Q15761 with tags, fused parts or gaps INS235IRLKRRNNMMDKMRDNKY/DEL238-360/K361S): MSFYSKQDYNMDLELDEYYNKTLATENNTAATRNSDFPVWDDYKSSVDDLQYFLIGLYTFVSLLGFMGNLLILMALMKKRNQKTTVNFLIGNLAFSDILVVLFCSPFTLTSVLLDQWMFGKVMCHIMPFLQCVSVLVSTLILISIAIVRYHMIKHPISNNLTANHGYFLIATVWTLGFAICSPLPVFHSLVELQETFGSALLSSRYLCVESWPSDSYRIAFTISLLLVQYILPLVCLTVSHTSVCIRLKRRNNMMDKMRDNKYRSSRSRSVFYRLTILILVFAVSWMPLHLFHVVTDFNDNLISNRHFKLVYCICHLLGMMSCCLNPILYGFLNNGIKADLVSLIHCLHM
The assay is described as follows: [125I]PYY competition binding, Sf9 membranes expressing NPY5ΔY1IC3. The settings on record: displacement of 0.050 nM [125I]PYY (porcine).
Procedure: (§1) 72 hours post-infection, a sample of cell suspension was analyzed for viability by trypan blue dye exclusion, and the remaining Sf9 cells were harvested via centrifugation (3000 rpm/10 minutes/4° C.).
(§2) Sf9 cell pellets prepared in Example 3 were resuspended in homogenization buffer (10 mM HEPES, 250 mM sucrose, 0.5 μg/ml leupeptin, 2 μg/ml Aprotinin, 200 μM PMSF, and 2.5 mM EDTA, pH 7.4) and homogenized using a POLYTRON homogenizer (setting 5 for 30 seconds). The homogenate was centrifuged (536×g/10 minutes/4° C.) to pellet the nuclei. The supernatant containing isolated membranes was decanted to a clean centrifuge tube, centrifuged (48,000×g/30 minutes, 4° C.) and resuspended in 30 ml homogenization buffer. This centrifugation and resuspension step was repeated twice. The final pellet was resuspended in ice cold Dulbecco's PBS containing 5 mM EDTA and stored at −80° C. in aliquots until needed. The protein concentration of the resulting membrane preparation was measured using the Bradford protein assay (Bio-Rad Laboratories, Hercules, Calif.).
(§3) Purified P2 membranes, prepared by the method given above in Example 4, were washed with PBS and resuspended by Dounce homogenization (tight pestle) in binding buffer (50 mM Tris-HCl, 5 mM KCl, 120 mM NaCl, 2 mM CaCl2, 1 mM MgCl2, 0.1% BSA, pH 7.4).
(§4) Nonspecific binding was determined in the presence of 1 μM NPY (human, American Peptide Co., Sunnyvale, Calif.) and accounted for less that 10% of total binding. Following a 2-hour incubation at room temperature, the reaction was terminated by rapid vacuum filtration. Samples were filtered over presoaked (in 1.0% polyethyeneimine for 2 hours prior to use) GF/C WHATMAN filters and rinsed 2 times with 5 mLs cold binding buffer without BSA. Remaining bound radioactivity was quantified by gamma counting. Ki and Hill coefficient (“nH”) were determined by fitting the Hill equation to the measured values with the aid of SIGMAPLOT software (SPSS Inc., Chicago).

For assay [2], the target named is T3, NPY5ΔY1CT chimeric receptor (Homo sapiens, UniProt P25929+Q15761).
T3 construct: made in house; host or cells: Sf9 insect cells infected with recombinant baculovirus (pBacPAK9 vector); purified membranes
T3 sequence (Q15761+P25929 with tags, fused parts or gaps): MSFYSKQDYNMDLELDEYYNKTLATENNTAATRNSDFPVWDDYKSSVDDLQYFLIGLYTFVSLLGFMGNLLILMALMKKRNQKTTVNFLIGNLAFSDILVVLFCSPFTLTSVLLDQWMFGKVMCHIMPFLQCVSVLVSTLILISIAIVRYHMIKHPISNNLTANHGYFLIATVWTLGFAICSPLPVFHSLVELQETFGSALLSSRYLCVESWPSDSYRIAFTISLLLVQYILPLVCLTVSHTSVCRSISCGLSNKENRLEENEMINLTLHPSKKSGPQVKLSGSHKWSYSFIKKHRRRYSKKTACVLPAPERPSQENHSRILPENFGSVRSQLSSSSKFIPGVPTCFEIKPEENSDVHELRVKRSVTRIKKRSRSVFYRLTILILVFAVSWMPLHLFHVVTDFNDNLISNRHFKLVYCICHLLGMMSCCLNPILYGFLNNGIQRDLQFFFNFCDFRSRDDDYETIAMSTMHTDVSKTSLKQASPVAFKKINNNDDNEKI
The experiment in a line: [125I]PYY competition binding, Sf9 membranes expressing NPY5ΔY1CT. Particulars: displacement of 0.050 nM [125I]PYY (porcine).
Procedure: as §1, §2, §3, §4

The target of the next assay is T4, Human NPY5ΔY1CT chimera (human).
T4 construct: Human NPY5 with its C-terminal intracellular domain replaced by that of human Y1; Expressed in Sf9 cells; assayed in purified membranes
T4 chain: T3 sequence (Q15761+P25929 with tags, fused parts or gaps)
The assay is described as follows: displacement of 0.050 nM [125I]PYY (porcine) from Sf9 membranes, filtration.

A further assay concerns the target T5, Human Y5 receptor (NPY5) (human, UniProt Q15761 1-445).
T5 construct: Full-length receptor expressed by baculovirus in Sf9 insect cells; assayed in purified Sf9 membranes, not on whole cells; also called native NPY5 receptor; hY5
T5 sequence: T1 sequence (Q15761 with tags, fused parts or gaps)
The description is as above.

Procedure for Human NPY5ΔY1CT chimera: (§5) Following a 2-hour incubation at room temperature, the reaction was terminated by rapid vacuum filtration. Samples were filtered over presoaked (in 1.0% polyethyeneimine for 2 hours prior to use) GF/C WHATMAN filters and rinsed 2 times with 5 mLs cold binding buffer without BSA. Remaining bound radioactivity was quantified by gamma counting. Kᵢ and Hill coefficient (“nH”) were determined by fitting the Hill equation to the measured values with the aid of SIGMAPLOT software (SPSS Inc., Chicago).
Procedure for Human Y5 receptor (NPY5): as §5
Procedure for NPY5 receptor: as §1, §2, §3, §4

For the molecule human NPY 1-36 [HNPY 1-36], the “nH (Hill coefficient)” value is recorded as 0.7 on NPY5 receptor, 1.0 in assay [1] and 0.7 in assay [2].
As to human D-Trp 32 NPY, the entries for the “nH (Hill coefficient)” value (on NPY5 receptor; in assay [1]; in assay [2]) were 0.7, 0.8 and 0.9, respectively.
For human NPY 13-36 [HNPY 13-36], in that order: 0.7, 1.0 and 0.5.
For human NPY 3-36 [HNPY 3-36], the “nH (Hill coefficient)” value on NPY5 receptor was found to be 0.7; in assay [1], 1.2; in assay [2], 0.6.

B1: human pancreatic polypeptide (peptide, UniProt P01298 30-65, looked up)
peptide: APLEPVYPGDNATPEQMAQYAADLRRYINMLTRPRY
notes: also called hPP; HPP
A word on the Ki: it is the dissociation constant of the complex between target and ligand, obtained from inhibition or displacement. Consider B1, for which, in the assay with Human NPY5ΔY1CT chimera, the Ki came to 0.31 nM.

B2: human NPY 13-36 (peptide, UniProt P01303 41-64, looked up)
peptide: PAEDMARYYSALRHYINLITRQRY
modifications: ends and bridges not checked
notes: range 13-36; also called HNPY 13-36
For B2, affinity with Human Y5 receptor (NPY5) was put at a Ki of 20 nM.
